Patent US11471469B2 (Lennham Pharmaceuticals, Inc., priority 2020, dated 2022)

Target: T1, Recombinant CYP19 (aromatase) (Homo sapiens, UniProt P11511)
T1 sequence (P11511 1-503): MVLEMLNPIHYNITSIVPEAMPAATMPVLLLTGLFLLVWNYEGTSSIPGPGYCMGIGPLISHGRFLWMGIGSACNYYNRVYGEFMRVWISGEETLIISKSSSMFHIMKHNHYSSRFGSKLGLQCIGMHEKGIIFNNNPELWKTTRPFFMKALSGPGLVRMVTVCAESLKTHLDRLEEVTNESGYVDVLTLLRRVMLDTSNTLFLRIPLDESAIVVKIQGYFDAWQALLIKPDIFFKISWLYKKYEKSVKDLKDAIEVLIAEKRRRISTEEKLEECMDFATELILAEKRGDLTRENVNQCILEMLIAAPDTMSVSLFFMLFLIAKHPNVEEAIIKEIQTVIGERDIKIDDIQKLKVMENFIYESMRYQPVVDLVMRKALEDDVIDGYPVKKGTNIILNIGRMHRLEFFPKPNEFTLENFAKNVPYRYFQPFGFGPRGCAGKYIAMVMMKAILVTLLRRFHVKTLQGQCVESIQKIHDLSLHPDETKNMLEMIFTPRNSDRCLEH
Assay: Metabolic stability in the presence of recombinant CYP19 (aromatase)
Description: The incubation conditions used are described in Table 1.
The analytical method used is described in Table 2.

[1] = recombinant human CYP19, compared with testosterone

With [2H]C([2H])([2H])[C@]12CCC(=O)C=C1CC[C@H]1[C@@H]3CC[C@H](O)[C@@]3(C)CC[C@@H]12 [Testosterone-19-d3, testosterone-19-d3] the “half-life (t1/2) in aromatase, times longer than that of non-isotopically enriched testosterone” value (recombinant human CYP19, 0.5 μM, 4 pmol/ml or 2 μM, 10 pmol/ml, NADPH 1 mM, 0-60 min at 37° C.) was 4-7 times, the clearance by aromatase [1] was “more resistant to clearance by aromatase” and the “metabolic stability in the presence of aromatase” value [1] was “substantially higher stability than testosterone”.
